Results as given in patent US10023593B2, “ALK kinase inhibitor, and preparation method and uses thereof” (BEIJING PEARL BIOTECHNOLOGY LIMITED LIABILITY COMPANY, priority 2014, dated 2018).

Legend:
NCI-H2228 cell line = assay: CellTiter-Glo cell proliferation inhibition on NCI-H2228 cell line; format: cell-based; conditions: Homo sapiens, NCI-H2228, 96 h, NCI-H2228 cells, 5000 cells/well, 4 days drug treatment
Summary of the method: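 NCI-H2228 cells, 5000/well in RPMI-1640 + 10% FBS, treated with compounds 2 h after seeding (0.5% DMSO final) for 4 days at 37° C. Viability by CellTiter-Glo luminescence; inhibition relative to DMSO control, IC50 from curve fit.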

Karpas-299 cell line = assay: CellTiter-Glo cell proliferation inhibition on Karpas-299 cell line; format: cell-based; conditions: Homo sapiens, 96 h, Karpas-299 cells, 5000 cells/well, 4 days drug treatment
Summary of the method: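 CellTiter-Glo luminescence measured after 4-day compound exposure (0.5% DMSO final) of Karpas-299 cells seeded at 5000/well in RPMI-1640 with 10% FBS, 37 °C, 5% CO2. IC50 derived from percent inhibition relative to vehicle wells.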

cytochrome P450 1A2 = target: T1, cytochrome P450 1A2 (Homo sapiens, UniProt P05177); assay: Inhibitory activity on cytochrome P450 1A2; format: in vitro ADME; conditions: no significant inhibition
T1 sequence (P05177 1-516): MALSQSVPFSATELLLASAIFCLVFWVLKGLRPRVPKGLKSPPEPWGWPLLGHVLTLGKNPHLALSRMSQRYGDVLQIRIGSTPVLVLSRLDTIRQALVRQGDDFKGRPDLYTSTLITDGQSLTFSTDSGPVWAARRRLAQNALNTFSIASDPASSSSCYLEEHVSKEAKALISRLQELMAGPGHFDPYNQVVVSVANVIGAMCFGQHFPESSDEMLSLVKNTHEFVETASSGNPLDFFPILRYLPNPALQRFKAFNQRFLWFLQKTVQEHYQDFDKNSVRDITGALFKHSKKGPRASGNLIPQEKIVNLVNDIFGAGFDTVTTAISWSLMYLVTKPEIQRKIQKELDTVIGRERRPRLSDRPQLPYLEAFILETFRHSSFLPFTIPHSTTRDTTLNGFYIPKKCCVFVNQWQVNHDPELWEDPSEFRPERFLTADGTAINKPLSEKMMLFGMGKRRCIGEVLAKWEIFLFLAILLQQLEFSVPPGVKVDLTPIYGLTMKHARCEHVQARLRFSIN

cytochrome P450 2C9 = cytochrome P450 2C9 (Homo sapiens, UniProt P11712); assay: Inhibitory activity on cytochrome P450 2C9; format: in vitro ADME; conditions: no significant inhibition
cytochrome P450 2C19 = cytochrome P450 2C19 (Homo sapiens, UniProt P33261); assay: Inhibitory activity on cytochrome P450 2C19; format: in vitro ADME; conditions: no significant inhibition
cytochrome P450 2D6 = cytochrome P450 2D6 (Homo sapiens, UniProt P10635); assay: Inhibitory activity on cytochrome P450 2D6; format: in vitro ADME; conditions: no significant inhibition
cytochrome P450 3A4 = cytochrome P450 3A4 (Homo sapiens, UniProt P08684); assay: Inhibitory activity on cytochrome P450 3A4; format: in vitro ADME; conditions: no significant inhibition
Chain of cytochrome P450 3A4 (P08684 whole entry): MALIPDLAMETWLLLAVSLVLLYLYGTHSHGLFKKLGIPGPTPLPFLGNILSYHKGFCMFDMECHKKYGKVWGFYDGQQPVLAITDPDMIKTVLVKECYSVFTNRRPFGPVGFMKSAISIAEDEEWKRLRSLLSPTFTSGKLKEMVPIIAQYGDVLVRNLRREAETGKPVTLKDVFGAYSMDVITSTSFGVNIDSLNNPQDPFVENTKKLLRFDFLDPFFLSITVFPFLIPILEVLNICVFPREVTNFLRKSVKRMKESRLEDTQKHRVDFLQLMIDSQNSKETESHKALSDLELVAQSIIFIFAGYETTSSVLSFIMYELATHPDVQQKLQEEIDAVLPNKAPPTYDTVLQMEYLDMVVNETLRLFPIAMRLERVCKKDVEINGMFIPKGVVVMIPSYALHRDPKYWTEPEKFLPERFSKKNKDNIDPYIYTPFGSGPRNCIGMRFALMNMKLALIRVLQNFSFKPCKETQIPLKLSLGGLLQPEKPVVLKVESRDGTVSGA

Chain of cytochrome P450 2C19 (P33261 whole entry): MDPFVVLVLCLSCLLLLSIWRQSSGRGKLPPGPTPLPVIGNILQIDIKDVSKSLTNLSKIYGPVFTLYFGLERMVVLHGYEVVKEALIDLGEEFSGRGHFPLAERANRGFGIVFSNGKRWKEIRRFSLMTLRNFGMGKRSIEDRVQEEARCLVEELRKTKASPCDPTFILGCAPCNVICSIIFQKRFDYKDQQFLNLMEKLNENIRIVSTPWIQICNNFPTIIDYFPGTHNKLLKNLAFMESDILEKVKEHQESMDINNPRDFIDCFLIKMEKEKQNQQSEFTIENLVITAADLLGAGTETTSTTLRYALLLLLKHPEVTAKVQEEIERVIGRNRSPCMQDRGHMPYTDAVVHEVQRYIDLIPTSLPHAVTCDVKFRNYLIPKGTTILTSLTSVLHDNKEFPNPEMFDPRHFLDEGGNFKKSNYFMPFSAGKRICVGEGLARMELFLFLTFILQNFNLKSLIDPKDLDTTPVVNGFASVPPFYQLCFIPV
Chain of cytochrome P450 2D6 (P10635 whole entry): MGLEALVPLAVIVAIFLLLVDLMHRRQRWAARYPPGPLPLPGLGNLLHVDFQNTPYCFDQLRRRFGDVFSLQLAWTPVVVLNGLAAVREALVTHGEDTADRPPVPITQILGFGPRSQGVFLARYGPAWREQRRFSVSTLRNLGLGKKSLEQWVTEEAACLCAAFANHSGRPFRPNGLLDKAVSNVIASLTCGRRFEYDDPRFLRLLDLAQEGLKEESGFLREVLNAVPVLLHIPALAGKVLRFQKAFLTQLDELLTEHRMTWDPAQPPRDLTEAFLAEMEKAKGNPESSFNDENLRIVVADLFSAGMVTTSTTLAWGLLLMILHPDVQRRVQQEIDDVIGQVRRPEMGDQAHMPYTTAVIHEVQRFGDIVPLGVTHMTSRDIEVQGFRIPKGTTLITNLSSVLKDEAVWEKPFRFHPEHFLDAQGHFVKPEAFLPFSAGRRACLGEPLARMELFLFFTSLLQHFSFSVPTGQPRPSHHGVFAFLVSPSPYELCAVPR
Chain of cytochrome P450 2C9 (P11712 whole entry): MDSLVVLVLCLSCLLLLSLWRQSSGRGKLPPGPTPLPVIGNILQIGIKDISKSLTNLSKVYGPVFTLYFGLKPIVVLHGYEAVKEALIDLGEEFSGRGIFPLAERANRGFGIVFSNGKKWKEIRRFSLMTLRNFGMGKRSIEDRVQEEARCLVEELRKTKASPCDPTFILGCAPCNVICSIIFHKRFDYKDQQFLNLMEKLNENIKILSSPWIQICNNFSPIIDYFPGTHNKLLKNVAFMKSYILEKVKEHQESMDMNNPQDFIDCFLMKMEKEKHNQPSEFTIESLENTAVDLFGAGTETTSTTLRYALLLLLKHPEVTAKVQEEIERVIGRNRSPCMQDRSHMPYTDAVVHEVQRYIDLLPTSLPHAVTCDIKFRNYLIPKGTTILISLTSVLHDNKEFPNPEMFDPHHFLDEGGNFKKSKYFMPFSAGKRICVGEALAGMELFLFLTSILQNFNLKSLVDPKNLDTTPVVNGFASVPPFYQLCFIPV

Row | SMILES | IC50 (NCI-H2228 cell line) [nM] | IC50 (Karpas-299 cell line) [nM] | IC50 (cytochrome P450 1A2) [nM] | IC50 (cytochrome P450 2C9) [nM] | IC50 (cytochrome P450 2C19) [nM] | IC50 (cytochrome P450 2D6) [nM] | IC50 (cytochrome P450 3A4) [nM]
1 | CC(C)Oc1cc(C2CCNCC2)ccc1Nc1ncc(Cl)c(Nc2cn(C)nc2S(=O)(=O)C(C)C)n1 [Final product 1, 5-chloro-N^2-[2-isopropoxy-4-(piperidin-4-yl)phenyl]-N^4-(3-isopropylsulfonyl-1-methyl-1H-pyrazol-4-yl)pyrimidin-2,4-diamine] | 184 | 10 | – | – | – | – | –
2 | Cc1cc(Nc2ncc(Cl)c(Nc3cn(C)nc3S(=O)(=O)C(C)C)n2)c(OC(C)C)cc1C1CCNCC1 [Final product 2] | 198 | 16 | – | – | – | – | –
3 | Cc1cc(Nc2ncc(Cl)c(Nc3cn(C)nc3S(=O)(=O)C(C)C)n2)c(OC(C)C)cc1C1CCNC1 (stereo not drawn) [Final product 3] | 364 | 28 | – | – | – | – | –
4 | Cc1cc(Nc2ncc(Cl)c(Nc3cn(C)nc3S(=O)(=O)CC(C)C)n2)c(OC2CC2)cc1C1CN(C)C1 [Final product 55] | 181 | 25 | – | – | – | – | –
5 | Cc1cc(Nc2ncc(Cl)c(Nc3cn(C4CC4)nc3S(=O)(=O)C(C)C)n2)c(OC2CC2)cc1C1CCN(C)CC1 [Final product 56] | 142 | 21 | – | – | – | – | –
6 | Cc1cc(Nc2ncc(Cl)c(Nc3cn(C)nc3S(=O)(=O)CC(C)C)n2)c(OC2CC2)cc1C1CCN(C)CC1 [Final product 57] | 108 | 12 | > 10000 | > 10000 | > 10000 | > 10000 | > 10000
7 | COCC1CC(c2cc(OC3CC3)c(Nc3ncc(Cl)c(Nc4cn(C)nc4S(=O)(=O)C(C)C)n3)cc2C)CCN1C (stereo not drawn) [Final product 77] | 25 | 4 | > 10000 | > 10000 | > 10000 | > 10000 | > 10000
8 | COCC1CC(c2cc(OC3CC3)c(Nc3ncc(Cl)c(Nc4cn(C)nc4S(=O)(=O)CC(C)C)n3)cc2C)CCN1C (stereo not drawn) [Final product 79] | 62 | 12 | – | – | – | – | –
9 | Cc1cc(Nc2ncc(Cl)c(Nc3cn(C4CC4)nc3S(=O)(=O)C(C)C)n2)c(OC(C)C)cc1C1CCN(C)CC1 [Final product 81] | 190 | 27 | – | – | – | – | –
10 | Cc1cc(Nc2ncc(Cl)c(Nc3cn(C)nc3S(=O)(=O)C(C)C)n2)c(OC2CC2)cc1C1CCC(NS(C)(=O)=O)CC1 (stereo not drawn) [Final product 205, N-(4-(4-(5-chloro-4-(3-(isopropylsulfonyl)-1-methyl-1H-pyrazol-4-amine)pyrimidin-2-amine)-5-cyclopropoxy-2-methylphenyl)cyclohexyl)methanesulfonamide] | 151 | 18 | > 10000 | > 10000 | > 10000 | > 10000 | > 10000

Other lines, results leading:

Row | IC50 (NCI-H2228 cell line) [nM] | IC50 (Karpas-299 cell line) [nM] | IC50 (cytochrome P450 1A2) [nM] | IC50 (cytochrome P450 2C9) [nM] | IC50 (cytochrome P450 2C19) [nM] | IC50 (cytochrome P450 2D6) [nM] | IC50 (cytochrome P450 3A4) [nM] | SMILES
11 | 133 | 16 | – | – | – | – | – | Cc1cc(Nc2ncc(Cl)c(Nc3cn(C)nc3S(=O)(=O)C(C)C)n2)c(OC2CC2)cc1C1CCN(C)C1 (stereo not drawn) [Final product 53]
12 | 18 | 7 | – | – | – | – | – | Cc1cc(Nc2ncc(Cl)c(Nc3cn(C)nc3S(=O)(=O)C(C)C)n2)c(OC2CC2)cc1C1CN(C)C1 [Final product 54]
13 | 55 | 11 | – | – | – | – | – | COC1CN(C)CCC1c1cc(OC2CC2)c(Nc2ncc(Cl)c(Nc3cn(C)nc3S(=O)(=O)C(C)C)n2)cc1C (stereo not drawn) [Final product 58]
14 | 43 | 14 | > 10000 | > 10000 | > 10000 | > 10000 | > 10000 | COCCN1CCC(c2cc(OC3CC3)c(Nc3ncc(Cl)c(Nc4cn(C)nc4S(=O)(=O)C(C)C)n3)cc2C)CC1 [Final product 82]
15 | 113 | 13 | – | – | – | – | – | Cc1cc(Nc2ncc(Cl)c(Nc3cn(C)nc3S(=O)(=O)C(C)C)n2)c(OC2CC2)cc1C1CCN(C)CC1F (stereo not drawn) [Final product 87]
16 | 72 | 17 | – | – | – | – | – | Cc1cc(Nc2ncc(Cl)c(Nc3cn(C)nc3S(=O)(=O)C(C)C)n2)c(OC2CC2)cc1C1CCN(C)CC1(F)F (stereo not drawn) [Final product 88]
17 | 45 | 5 | – | – | – | – | – | Cc1cc(Nc2ncc(Cl)c(Nc3cn(C)nc3S(=O)(=O)C(C)C)n2)c(OC2CC2)cc1C1CCN(C)CC1C (stereo not drawn) [Final product 90]
